Test results as given in patent US10323018B2 (Millennium Pharmaceuticals, Inc., priority 2015, dated 2019).

Experiments:
hNAMPT protein = hNAMPT protein (Homo sapiens (Human), UniProt P43490); assay: NAMPT enzyme assay (TR-FRET/HTRF with BodiPY ligand); type: binding; settings: for inhibition at 1 µM: NAMPT inhibition at compound concentration 1 μM; for IC50: NAMPT inhibition, IC50 range class
Summary of the method: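 His-tagged hNAMPT with anti-6His-Tb, incubated with compound and BodiPY ligand for 1 h at rt in the dark, in Tris-HCl pH 7.5 buffer with DTT, NaCl, MgCl2 and Tween 20. TR-FRET measured with 320 nm excitation as the 520/486 nm emission ratio. IC50 fitted relative to DMSO controls.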

PC3 cells = assay: PC3 growth inhibition (Cell-titer glo, 72 hours); type: cell-based; settings: Homo sapiens, PC-3, 72 h, read-out: Percent Viability, PC3 cells, compound concentration 1.667 μM, 72 hours
Summary of the method: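 PC3 cells grown in RPMI1640 plated at 8×10^4 cells/ml, incubated overnight, then exposed to compound diluted in AIM serum-free medium for 72 h at 37 °C, 5% CO2. Luminescence by CellTiter-Glo relative to DMSO controls; % viability at single concentration, GI50 or LD50 from concentration-response curves.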

Chain of hNAMPT protein (P43490 whole entry): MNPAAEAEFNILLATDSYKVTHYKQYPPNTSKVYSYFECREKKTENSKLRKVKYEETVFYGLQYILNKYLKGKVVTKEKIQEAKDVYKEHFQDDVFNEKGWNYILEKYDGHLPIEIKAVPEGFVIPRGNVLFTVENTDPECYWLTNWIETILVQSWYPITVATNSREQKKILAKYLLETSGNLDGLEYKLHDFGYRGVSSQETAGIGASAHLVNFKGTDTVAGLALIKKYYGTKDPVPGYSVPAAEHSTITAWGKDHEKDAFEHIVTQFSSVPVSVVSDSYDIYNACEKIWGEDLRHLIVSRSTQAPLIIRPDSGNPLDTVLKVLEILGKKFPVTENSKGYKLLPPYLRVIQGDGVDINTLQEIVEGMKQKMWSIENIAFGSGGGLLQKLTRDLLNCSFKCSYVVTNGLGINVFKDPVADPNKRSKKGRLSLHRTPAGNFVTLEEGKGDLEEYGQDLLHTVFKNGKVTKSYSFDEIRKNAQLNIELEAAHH

Row | Compound | inhibition at 1 µM (hNAMPT protein; read-out: Percent Inhibition) | IC50 (hNAMPT protein) | viability at 1.667 µM (PC3 cells) | inhibition at 0.33 µM (hNAMPT protein; NAMPT inhibition at compound concentration 0.33 μM, read-out: Percent Inhibition)
1 | COCCOc1cc(-c2ccc(F)cc2)nc2cc(C(=O)NCCCc3ncc[nH]3)ccc12 [Compound I-156, 2-(4-fluorophenyl)-N-[3-(1H-imidazol-2-yl)propyl]-4-(2-methoxyethoxy)quinoline-7-carboxamide] | 100% | < 10 nM | 2% | –
2 | Cc1cc(-c2cc(-c3ccc(F)cc3)c3ccc(C(=O)NCCCc4nnc[nH]4)cc3n2)ccn1 [Compound I-157, N-(3-(4H-1,2,4-triazol-3-yl)propyl)-4-(4-fluorophenyl)-2-(2-methylpyridin-4-yl)quinoline-7-carboxamide] | 89% | 50 to 100 nM | 5% | –
3 | CCOc1cc(-c2ccncc2C)nc2cc(C(=O)NCCCc3nnc[nH]3)ccc12 [Compound I-158, 4-ethoxy-2-(3-methylpyridin-4-yl)-N-[3-(4H-1,2,4-triazol-3-yl)propyl]quinoline-7-carboxamide] | 97% | 10 to 50 nM | 1% | –
4 | CCOc1cc(-c2cc(C)cnc2OC)nc2cc(C(=O)NCCCc3nnc[nH]3)ccc12 [Compound I-159, 4-ethoxy-2-(2-methoxy-5-methylpyridin-3-yl)-N-[3-(4H-1,2,4-triazol-3-yl)propyl]quinoline-7-carboxamide] | 99% | 10 to 50 nM | 2% | –
5 | CCOc1cc(-c2ccc(F)cc2)nc2cc(C(=O)N[C@@H](C)c3nc4cnccc4[nH]3)ccc12 [Compound I-160, 4-ethoxy-2-(4-fluorophenyl)-N-[(1S)-1-(1H-imidazo[4,5-c]pyridin-2-yl)ethyl]quinoline-7-carboxamide] | 60% | > 100 nM | > 99% | –
6 | CCOc1cc(-c2cc(F)cnc2OC)nc2cc(C(=O)NCCCc3nnc[nH]3)ccc12 [Compound I-161, 4-ethoxy-2-(5-fluoro-2-methoxypyridin-3-yl)-N-[3-(4H-1,2,4-triazol-3-yl)propyl]quinoline-7-carboxamide] | 97% | 10 to 50 nM | 2% | –
7 | Cc1cc(-c2nc(-c3ccc(F)cc3)nc3cc(C(=O)NCCCc4nnc[nH]4)ccc23)ccn1 [Compound I-162, 2-(4-fluorophenyl)-4-(2-methylpyridin-4-yl)-N-[3-(4H-1,2,4-triazol-3-yl)propyl]quinazoline-7-carboxamide] | 94% | 10 to 50 nM | 2% | –
8 | CCCc1cc(-c2ccc(F)cc2)nc2cc(C(=O)NCCCc3ncc[nH]3)ccc12 [Compound I-163, 2-(4-fluorophenyl)-N-[3-(1H-imidazol-2-yl)propyl]-4-propylquinoline-7-carboxamide] | 97% | < 10 nM | 2% | –
9 | CCOc1cc(-c2cc(OC)ncc2Cl)nc2cc(C(=O)NCCCc3nnc[nH]3)ccc12 [Compound I-164, 2-(5-chloro-2-methoxypyridin-4-yl)-4-ethoxy-N-[3-(4H-1,2,4-triazol-3-yl)propyl]quinoline-7-carboxamide] | 97% | < 10 nM | 2% | –
10 | CCOc1cc(-c2ccc(F)cc2OC)nc2cc(C(=O)NCCCc3nnc[nH]3)ccc12 [Compound I-165, 4-ethoxy-2-(4-fluoro-2-methoxyphenyl)-N-[3-(4H-1,2,4-triazol-3-yl)propyl]quinoline-7-carboxamide] | 99% | 10 to 50 nM | 1% | –
11 | CCOc1cc(-c2ccnc(OC)c2Cl)nc2cc(C(=O)NCCCc3nnc[nH]3)ccc12 [Compound I-166, 2-(3-chloro-2-methoxypyridin-4-yl)-4-ethoxy-N-[3-(4H-1,2,4-triazol-3-yl)propyl]quinoline-7-carboxamide] | 94% | 10 to 50 nM | 2% | –
12 | CCOc1cc(-c2ccc(C)nc2)nc2cc(C(=O)NCc3nc4cnccc4[nH]3)ccc12 [Compound I-167, 4-ethoxy-N-(1H-imidazo[4,5-c]pyridin-2-ylmethyl)-2-(6-methylpyridin-3-yl)quinoline-7-carboxamide] | > 99% | < 10 nM | 2% | –
13 | CCOc1cc(-c2ccc(C)nc2)nc2cc(C(=O)NCCc3nnc[nH]3)ccc12 [Compound I-168, 4-ethoxy-2-(6-methylpyridin-3-yl)-N-[2-(4H-1,2,4-triazol-3-yl)ethyl]quinoline-7-carboxamide] | 95% | 10 to 50 nM | 2% | –
14 | CCOc1cc(-c2ccc(C)nc2)nc2cc(C(=O)NCCc3c[nH]nn3)ccc12 [Compound I-169, 4-ethoxy-2-(6-methylpyridin-3-yl)-N-[2-(1H-1,2,3-triazol-4-yl)ethyl]quinoline-7-carboxamide] | 97% | 10 to 50 nM | 3% | –
15 | CCOc1cc(-c2ccc(F)cc2OC)nc2cc(C(=O)NCCc3ncn[nH]3)ccc12 [Compound I-170, 4-ethoxy-2-(4-fluoro-2-methoxyphenyl)-N-[2-(1H-1,2,4-triazol-5-yl)ethyl]quinoline-7-carboxamide] | 93% | 50 to 100 nM | 2% | –
16 | CCCc1cc(-c2ccc(F)cc2)nc2cc(C(=O)NCCCc3ncn[nH]3)ccc12 [Compound I-171, 2-(4-fluorophenyl)-4-propyl-N-[3-(4H-1,2,4-triazol-3-yl)propyl]quinoline-7-carboxamide] | 97% | 10 to 50 nM | 2% | –
17 | CCOc1cc(-c2ccnc(C)c2)nc2cc(C(=O)NCCc3nnc[nH]3)ccc12 [Compound I-172, 4-ethoxy-2-(2-methylpyridin-4-yl)-N-[2-(4H-1,2,4-triazol-3-yl)ethyl]quinoline-7-carboxamide] | 71% | > 100 nM | 6% | –
18 | CCOc1cc(-c2ccc(C)nc2)nc2cc(C(=O)NCCCc3nnc[nH]3)ccc12 [Compound I-173, 4-ethoxy-2-(6-methylpyridin-3-yl)-N-[3-(4H-1,2,4-triazol-3-yl)propyl]quinoline-7-carboxamide] | 98% | 10 to 50 nM | 2% | –
19 | CCOc1cc(-c2ccc(C)nc2OC)nc2cc(C(=O)NCc3nc4cnccc4[nH]3)ccc12 [Compound I-174, 4-ethoxy-N-(1H-imidazo[4,5-c]pyridin-2-ylmethyl)-2-(2-methoxy-6-methylpyridin-3-yl)quinoline-7-carboxamide] | > 99% | < 10 nM | 1% | –
20 | CCOc1cc(-c2ccc(Cl)s2)nc2cc(C(=O)NCc3nc4cnccc4[nH]3)ccc12 [Compound I-175, 2-(5-chloro-2-thienyl)-4-ethoxy-N-(1H-imidazo[4,5-c]pyridin-2-ylmethyl)quinoline-7-carboxamide] | – | < 10 nM | 2% | 98%
21 | CCOc1cc(-c2ccc(Cl)s2)nc2cc(C(=O)NCCc3cnn[nH]3)ccc12 [Compound I-176, 2-(5-chloro-2-thienyl)-4-ethoxy-N-[2-(1H-1,2,3-triazol-5-yl)ethyl]quinoline-7-carboxamide] | 99% | 10 to 50 nM | 4% | –
22 | CCOc1cc(-c2ccc(Cl)s2)nc2cc(C(=O)NCCc3nnc[nH]3)ccc12 [Compound I-177, 2-(5-chloro-2-thienyl)-4-ethoxy-N-[2-(4H-1,2,4-triazol-3-yl)ethyl]quinoline-7-carboxamide] | 97% | 10 to 50 nM | 3% | –
23 | CCOc1cc(-c2ccc(F)cc2)nc2cc(C(=O)NCc3nc4cnccc4n3C)ccc12 [Compound I-178, 4-ethoxy-2-(4-fluorophenyl)-N-[(1-methyl-1H-imidazo[4,5-c]pyridin-2-yl)methyl]quinoline-7-carboxamide] | 99% | < 10 nM | 2% | –
24 | CCOc1cc(-c2cc(F)ccc2OC)nc2cc(C(=O)NCc3nc4cnccc4n3C)ccc12 [Compound I-179, 4-ethoxy-2-(5-fluoro-2-methoxyphenyl)-N-[(1-methyl-1H-imidazo[4,5-c]pyridin-2-yl)methyl]quinoline-7-carboxamide] | 95% | 50 to 100 nM | 2% | –
25 | CCOc1cc(-c2cccnc2OC)nc2cc(C(=O)NCCc3nnc[nH]3)ccc12 [Compound I-180, 4-ethoxy-2-(2-methoxypyridin-3-yl)-N-[2-(4H-1,2,4-triazol-3-yl)ethyl]quinoline-7-carboxamide] | 83% | > 100 nM | 2% | –
26 | CCOc1cc(-c2ccnc(C)c2)nc2cc(C(=O)NCCc3cnn[nH]3)ccc12 [Compound I-181, 4-ethoxy-2-(2-methylpyridin-4-yl)-N-[2-(1H-1,2,3-triazol-5-yl)ethyl]quinoline-7-carboxamide] | 86% | > 100 nM | 9% | –
27 | CCOc1cc(-c2cc(F)ccc2OC)nc2cc(C(=O)NCCc3nnc[nH]3)ccc12 [Compound I-182, 4-ethoxy-2-(5-fluoro-2-methoxyphenyl)-N-[2-(4H-1,2,4-triazol-3-yl)ethyl]quinoline-7-carboxamide] | 77% | > 100 nM | 5% | –
28 | CCOc1cc(-c2ccc(C)nc2OC)nc2cc(C(=O)NCCCc3nc[nH]n3)ccc12 [Compound I-183, 4-ethoxy-2-(2-methoxy-6-methylpyridin-3-yl)-N-[3-(1H-1,2,4-triazol-3-yl)propyl]quinoline-7-carboxamide] | 94% | 50 to 100 nM | 2% | –
